The source of these data is article PMC6880826 (Beilstein Journal of Organic Chemistry, 2019).

Series [1] deals with T1, Notum(81-451 Cys330Ser) (Homo sapiens, UniProt Q6P988, C330S).
T1 sequence (Q6P988 81-451 C330S): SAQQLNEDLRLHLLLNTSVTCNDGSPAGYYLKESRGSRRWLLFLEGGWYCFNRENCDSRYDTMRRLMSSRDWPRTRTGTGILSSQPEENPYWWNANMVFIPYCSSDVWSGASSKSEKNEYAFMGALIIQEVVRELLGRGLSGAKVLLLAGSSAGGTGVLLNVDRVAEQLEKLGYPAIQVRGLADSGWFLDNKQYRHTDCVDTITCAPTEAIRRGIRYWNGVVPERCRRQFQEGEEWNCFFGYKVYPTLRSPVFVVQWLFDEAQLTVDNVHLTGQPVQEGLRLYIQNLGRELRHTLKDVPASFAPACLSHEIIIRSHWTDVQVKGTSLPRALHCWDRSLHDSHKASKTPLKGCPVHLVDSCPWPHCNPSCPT
As to the kind of experiment: Notum OPTS fluorescence inhibition assay.

Series [2] is described as follows: Metabolic stability in mouse liver microsomes (MLM). In kind it is in vitro ADME. A general note: Liver microsomes are a subcellular fraction often used to study metabolism.
Series [3] deals with MDCK-MDR1 monolayer. The series is described as follows: MDCK-MDR1 monolayer permeability / P-gp efflux. In kind it is in vitro ADME. The settings on record: for efflux ratio: Table S4; for MDCK-mdr1 ER / MDCK-mdr1 AB / MDCK-mdr1 BA: csv file; for MDCK-mdr1 AB: AB direction; for MDCK-mdr1 BA: BA direction.
In series [4] the test system is P-gp (MDR1). The series is described as follows: MDCK-MDR1 monolayer permeability / P-gp efflux. In kind it is in vitro ADME. The following applies: dog; for MDCK-MDR1 AB Papp: Table S4; for Papp: MDCK-MDR1, Table S4; for efflux ratio: MDCK-MDR1, csv file, read-out: MDCK-mdr1 ER.
Series [5] is described as follows: Mouse pharmacokinetics, plasma and brain, oral dose. The settings on record: p.o. 10 mg/kg. In kind it is in vivo, CD1 mouse. The source says:
The route of administration and dose were selected to most closely match relevant published mouse disease model studies. […] Table S1: Study design summary S8 (1 picture or pasted object on this page, not shown here)

The mark [6] stands for this setting: Table S4, mouse liver microsomes.
Where [7] appears, read: BA direction, read-out: MDCK-MDR1 BA Papp.
[8] abbreviates: AB direction, read-out: MDCK-MDR1 AB Papp.

Each structure is given as a SMILES string. Where two headings read alike, the source gives them in different places.

As to `O=C(CSc1ncnc2c(C3CC3)c(Cl)sc12)N1CCn2cnnc2C1` [Compound 17p], the IC50 in series [1] was 1.2 nM. In series [2] (setting [6]), this molecule yielded an MLM Cli of 29 µL/min/mg. The “MLM Cli” value in series [2] (csv file) worked out at 29 µL/min/mg. In series [3], the efflux ratio is 98, the “MDCK-mdr1 ER” value came out at 98, the “MDCK-mdr1 AB” value is given as 0.95 x10–6 cm/s and the “MDCK-mdr1 BA” value stood at 93 x10–6 cm/s. In series [4] (AB direction), this molecule showed an MDCK-MDR1 AB Papp of 0.95 ×10⁻⁶ cm/s. Further, the Papp in series [4] (setting [7]) amounted to 93 ×10⁻⁶ cm/s.

In series [1], `O=C(CSc1ncnc2c(C3CC3)c(Cl)sc12)N1CCCCC1` [Compound 17b] had an IC50 of 91 nM.

The molecule `O=C(CSc1ncnc2c(C3CC3)c(Cl)sc12)N1CCn2ccnc2C1` [Compound 17m] registered an IC50 in series [1] of 2.7 nM. Further, the MLM Cli in series [2] (setting [6]) and in series [2] (csv file) was 290 µL/min/mg in each case. Besides, the efflux ratio in series [3] and in series [4] was 1.2 throughout. In addition, the “MDCK-mdr1 AB” value in series [3] worked out at 21 x10–6 cm/s. Further, in series [3], the “MDCK-mdr1 BA” value was 25 x10–6 cm/s. The Papp in series [4] (setting [8]) turned out to be 21 ×10⁻⁶ cm/s; in series [4] (setting [7]) it was 25 ×10⁻⁶ cm/s.

For the molecule `O=C(CSc1ncnc2c(C3CC3)c(Cl)sc12)N1CCc2ncccc2C1` [Compound 17l], in series [1], the IC50 was found to be 4.6 nM.

With `CN(C)C(=O)CSc1ncnc2c(C3CC3)c(Cl)sc12` [Compound 17a], the IC50 in series [1] was determined as 7.5 nM.

In turn, `O=C(CSc1ncnc2c(C3CC3)c(Cl)sc12)N1CCOCC1` [Compound 17c] showed an IC50 in series [1] of 18 nM. Moreover, in series [2] (setting [6]), the MLM Cli was > 500 µL/min/mg. Besides, in series [2] (csv file), the “MLM Cli” value is > 500 µL/min/mg. Also, in series [3], the efflux ratio came out at 0.95, the “MDCK-mdr1 ER” value was found to be 0.95, the “MDCK-mdr1 AB” value is listed as 40 x10–6 cm/s and the “MDCK-mdr1 BA” value was 38 x10–6 cm/s. Moreover, the Papp in series [4] (setting [8]) is 40 ×10⁻⁶ cm/s. Also, in series [4] (setting [7]), the Papp is 38 ×10⁻⁶ cm/s.

Molecule `O=C1CN(C(=O)CSc2ncnc3c(C4CC4)c(Cl)sc23)CCN1` [Compound 17i] yielded an IC50 in series [1] of 7.1 nM. In addition, the MLM Cli in series [2] (setting [6]) came out at 24 µL/min/mg. In series [2] (csv file), the “MLM Cli” value turned out to be 24 µL/min/mg. Further, in series [3], the efflux ratio came out at 8.2, the “MDCK-mdr1 ER” value was determined as 8.2, the “MDCK-mdr1 AB” value was found to be 7.9 x10–6 cm/s and the “MDCK-mdr1 BA” value stood at 65 x10–6 cm/s. For the same molecule, the Papp in series [4] (setting [8]) was 7.9 ×10⁻⁶ cm/s. Besides, in series [4] (setting [7]), the apparent permeability coefficient (Papp) was found to be 65 ×10⁻⁶ cm/s.

`O=C(O)CSc1ncnc2c(C3CC3)c(Cl)sc12` [Compound 1]: in series [2], the “Cli in mouse liver microsomes (MLM)” value turned out to be 1.0 μL/min/mg protein. Besides, the “MLM Cli” value in series [2] (setting [6]) was 1e+06 µL/min/mg. Moreover, in series [5] (CD1, po, brain), the highest concentration (Cmax) stood at 500 ng/g, the Tmax turned out to be 2 h and the half-life is 7.1 h. In addition, in series [5] (CD1, po, plasma), the AUC(0-inf) is 354 µg·h/mL, the AUC(0-t) is 303 µg·h/mL, the Cmax was 35400 ng/mL and the Tmax is 2 h. For the same molecule, the half-life in series [5] (CD1, po, plasma) was 8.8 h. Besides, in series [5] (brain), the AUC0→t is reported as 3,700 h·ng/g and the “AUC0→∞” value is 4,080 h·ng/g.

In turn, `O=C1CN(C(=O)CSc2ncnc3c(C4CC4)c(Cl)sc23)CN1` [Compound 17g] registered an IC50 in series [1] of 1.5 nM. This molecule also returned an MLM Cli in series [2] (setting [6]) of 19 µL/min/mg. Also, the “MLM Cli” value in series [2] (csv file) amounted to 19 µL/min/mg. In series [3], the efflux ratio turned out to be 3.7, the “MDCK-mdr1 ER” value amounted to 3.7, the “MDCK-mdr1 AB” value stood at 3.8 x10–6 cm/s and the “MDCK-mdr1 BA” value is listed as 14 x10–6 cm/s. In series [4] (AB direction), this molecule had an MDCK-MDR1 AB Papp of 3.8 ×10⁻⁶ cm/s. Moreover, the Papp in series [4] (setting [7]) was 14 ×10⁻⁶ cm/s.

In turn, `O=C1CN(C(=O)CSc2ncnc3c(C4CC4)c(Cl)sc23)CCCN1` [Compound 17j] yielded an IC50 in series [1] of 36 nM.

In the case of `O=C(CSc1ncnc2c(C3CC3)c(Cl)sc12)N1CCn2cncc2C1` [Compound 17n], the midpoint of inhibition in series [1], the IC50, lay at 2.5 nM. Besides, the MLM Cli in series [2] (setting [6]) and in series [2] (csv file) was 49 µL/min/mg in each case. Besides, the efflux ratio in series [3] and in series [4] was 3.4 throughout. Also, in series [3], the “MDCK-mdr1 AB” value is 9 x10–6 cm/s. Besides, the “MDCK-mdr1 BA” value in series [3] worked out at 31 x10–6 cm/s. In addition, the values for the Papp in series [4] (setting [8]) and in series [4] (setting [7]) were 9 ×10⁻⁶ cm/s and 31 ×10⁻⁶ cm/s, respectively.

Consider `O=C(CSc1ncnc2c(C3CC3)c(Cl)sc12)N1CCn2c(nnc2C(F)(F)F)C1` [Compound 17q], for which it took 8 nM to reach half-maximal inhibition in series [1] (IC50). In addition, the MLM Cli in series [2] (setting [6]) and in series [2] (csv file) was 190 µL/min/mg each time. The efflux ratio in series [3] and in series [4] was 2.8 each time. Moreover, the “MDCK-mdr1 AB” value in series [3] came to 12 x10–6 cm/s. Further, the “MDCK-mdr1 BA” value in series [3] came out at 34 x10–6 cm/s. Also, the Papp in series [4] (setting [8]) is 12 ×10⁻⁶ cm/s; in series [4] (setting [7]), 34 ×10⁻⁶ cm/s.

As to `CN1CN(C(=O)CSc2ncnc3c(C4CC4)c(Cl)sc23)CC1=O` [Compound 17h], inhibition in series [1] was half-maximal at 1.5 nM (IC50). Besides, the MLM Cli in series [2] (setting [6]) and in series [2] (csv file) was 45 µL/min/mg each time. Besides, the efflux ratio in series [3] and in series [4] was 2.2 in each case. The “MDCK-mdr1 AB” value in series [3] was 6 x10–6 cm/s. Moreover, the “MDCK-mdr1 BA” value in series [3] is on record as 13 x10–6 cm/s. For the same molecule, the Papp in series [4] (setting [8]) is 6 ×10⁻⁶ cm/s; in series [4] (setting [7]) it was 13 ×10⁻⁶ cm/s.

In series [1], `O=C(CSc1ncnc2c(C3CC3)c(Cl)sc12)N1CC2(COC2)C1` [Compound 17f] yielded an IC50 of 10 nM. Further, the MLM Cli in series [2] (setting [6]) and in series [2] (csv file) was 100 µL/min/mg in each case.

In the case of `O=C(CSc1ncnc2c(C3CC3)c(Cl)sc12)N1CC2COCC2C1` (stereo not shown) [Compound 17e], half-maximal inhibition in series [1] (IC50) required 10 nM. Also, the MLM Cli in series [2] (setting [6]) and in series [2] (csv file) was > 500 µL/min/mg each time.

Consider `O=C(CSc1ncnc2c(C3CC3)c(Cl)sc12)N1CCS(=O)(=O)CC1` [Compound 17d], for which, in series [1], the IC50 amounted to 48 nM.

`O=C1CCN(C(=O)CSc2ncnc3c(C4CC4)c(Cl)sc23)CCN1` [Compound 17k] came in with an IC50 in series [1] of 49 nM.

Molecule `O=C(CSc1ncnc2c(C3CC3)c(Cl)sc12)N1CCn2nncc2C1` [Compound 17r] registered a 50% inhibitory concentration (IC50) in series [1] of 2.4 nM. The MLM Cli in series [2] (setting [6]) and in series [2] (csv file) was 110 µL/min/mg in each case. Also, the efflux ratio in series [3] and in series [4] was 1.1 each time. Besides, the “MDCK-mdr1 AB” value in series [3] was determined as 26 x10–6 cm/s. In series [3], the “MDCK-mdr1 BA” value turned out to be 28 x10–6 cm/s. In addition, the Papp in series [4] (setting [8]) was found to be 26 ×10⁻⁶ cm/s; in series [4] (setting [7]) it was 28 ×10⁻⁶ cm/s.

For `O=C(CSc1ncnc2c(C3CC3)c(Cl)sc12)N1CCc2[nH]cnc2C1` [Compound 17o], the IC50 in series [1] is 2.3 nM.

The IC50 is the concentration needed to halve the response being measured. High values mean weaker potency, low ones greater potency. As usually defined, the Papp is the rate of passage across a membrane or cell layer, normalised by area and donor concentration. By Cmax is commonly meant the maximum level reached in the sampled fluid or tissue. By Tmax is commonly meant the time at which the peak concentration occurs. For orientation: half-life means the time in which the quantity being followed falls by half. Low values mean fast loss, high ones slow loss. For orientation: AUC(0-inf) means the area under the concentration-time curve extrapolated to infinity. The low end stands for low exposure, the high end for high exposure. As usually defined, the AUC(0-t) is the area under the concentration-time curve up to a stated or last time point. A high value points to more exposure.
